From PubChem BioAssay AID248 (DTP/NCI, 2004)
Several values for one entry are separate records, joined by “and”; a condition that tells them apart may be missing. Equal values may be shown once. Inconclusive results and toxic doses are left out. Cut-off read from the data, not from the text of the source: active = T/C of 150% or more; inactive = T/C below 125%.

Tested on: L1210 leukemia ip in BDF1 mice, survival T/C
Assay: NCI In Vivo Anticancer Drug Screen. Data for tumor model L1210 Leukemia (intraperitoneal) in B6D2F1 (BDF1) mice
Details: endpoint: mean survival time, higher = longer survival
Summary of the method: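 Value reflects the ratio of survival in compound-treated mice to survival in vehicle-treated controls, with both groups carrying the same transplanted tumor.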

[1] = dose: 100.0 mg/kg/injection, schedule: Q01DX009 (ip), vehicle: saline with Tween-80
[2] = dose: 200.0 mg/kg/injection, schedule: Q01DX009 (ip), vehicle: saline with Tween-80
[3] = dose: 100.0 mg/kg/injection, schedule: Q01DX001 (ip), vehicle: saline
[4] = dose: 200.0 mg/kg/injection, schedule: Q01DX001 (ip), vehicle: saline
[5] = dose: 400.0 mg/kg/injection, schedule: Q01DX001 (ip), vehicle: saline
[6] = dose: 100.0 mg/kg/injection, schedule: Q01DX001 (ip), vehicle: Klucel (hydroxypropylcellulose) (HPC)
[7] = dose: 100.0 mg/kg/injection, schedule: Q04DX003 (ip), vehicle: Klucel (hydroxypropylcellulose) (HPC)
[8] = dose: 200.0 mg/kg/injection, schedule: Q01DX001 (ip), vehicle: Klucel (hydroxypropylcellulose) (HPC)
[9] = dose: 200.0 mg/kg/injection, schedule: Q04DX003 (ip), vehicle: Klucel (hydroxypropylcellulose) (HPC)
[10] = dose: 400.0 mg/kg/injection, schedule: Q01DX001 (ip), vehicle: Klucel (hydroxypropylcellulose) (HPC)
[11] = dose: 400.0 mg/kg/injection, schedule: Q04DX003 (ip), vehicle: Klucel (hydroxypropylcellulose) (HPC)
[12] = dose: 200.0 mg/kg/injection, schedule: Q01DX009 (ip), vehicle: Klucel (hydroxypropylcellulose) (HPC)
[13] = dose: 100.0 mg/kg/injection, schedule: Q04DX003 (ip), vehicle: acetone
[14] = dose: 200.0 mg/kg/injection, schedule: Q04DX003 (ip), vehicle: acetone
[15] = dose: 400.0 mg/kg/injection, schedule: Q04DX003 (ip), vehicle: acetone
[16] = dose: 100.0 mg/kg/injection, schedule: Q01DX009 (ip), vehicle: other

Measured: T/C

CC[N+]1(C)CC2C3CCC(C)(O3)C2C1 (configuration not stated)
inactive: dose: 44.0 mg/kg/injection, schedule: Q01DX Z (ip), vehicle: methylcellulose (MC) 104 % of control | dose: 66.0 mg/kg/injection, schedule: Q01DX Z (ip), vehicle: methylcellulose (MC) 98 % of control | dose: 100.0 mg/kg/injection, schedule: Q01DX Z (ip), vehicle: methylcellulose (MC) 104 % of control

O=c1[nH]nnc2c1nc(Cc1ccc([N+](=O)[O-])cc1)n2Cc1ccccc1
inactive: dose: 100.0 mg/kg/injection, schedule: Q01DX001 (ip), vehicle: saline with Tween-80 102 % of control | dose: 200.0 mg/kg/injection, schedule: Q01DX001 (ip), vehicle: saline with Tween-80 86 % of control | dose: 400.0 mg/kg/injection, schedule: Q01DX001 (ip), vehicle: saline with Tween-80 100 % of control

CCOc1ccc(OCC)cc1
inactive: dose: 100.0 mg/kg/injection, schedule: Q04DX003 (ip), vehicle: saline with Tween-80 101 % of control | dose: 200.0 mg/kg/injection, schedule: Q04DX003 (ip), vehicle: saline with Tween-80 101 % of control | dose: 400.0 mg/kg/injection, schedule: Q04DX003 (ip), vehicle: saline with Tween-80 94 % of control

Oc1ccc2ccccc2c1Cc1cccc2ccccc12
inactive: [1] 90 % of control | [2] 95 % of control

Cc1c(C)c2cccc(C)c2[nH]c1=O
inactive: [3] 95 % of control | [4] 95 % of control | [5] 103 % of control

c1n[nH]c2c1CCC2
inactive: dose: 75.0 mg/kg/injection, schedule: Q01DX009 (ip), vehicle: saline with Tween-80 97 % of control | dose: 150.0 mg/kg/injection, schedule: Q01DX009 (ip), vehicle: saline with Tween-80 110 % of control

C=C(Br)CN=C=S
inactive: dose: 12.5 mg/kg/injection, schedule: Q01DX009 (ip), vehicle: saline 96 % of control | dose: 25.0 mg/kg/injection, schedule: Q01DX009 (ip), vehicle: saline 104 % of control | dose: 50.0 mg/kg/injection, schedule: Q01DX009 (ip), vehicle: saline 102 % of control

Clc1ccc2c(c1)C([P+](c1ccccc1)(c1ccccc1)c1ccccc1)c1cc(Cl)cc(Cl)c1-2 (configuration not stated)
inactive: [6] 95 % of control | [7] 102 % of control | [8] 93 % of control | [9] 96 % of control | [10] 95 % of control | [11] 104 % of control

CC(=O)c1ccc(N2CCCCC2)cc1
inactive: dose: 50.0 mg/kg/injection, schedule: Q01DX001 (ip), vehicle: saline 96 % of control | [3] 94 % of control | [4] 100 % of control | [5] 94 % of control

Cc1cc(=O)n(Cc2ccccc2)c(O)c1C
inactive: dose: 100.0 mg/kg/injection, schedule: Q01DX009 (ip), vehicle: Klucel (hydroxypropylcellulose) (HPC) 95 % of control | [7] 94 % of control | [12] 91 % of control | [9] 94 % of control | dose: 400.0 mg/kg/injection, schedule: Q01DX009 (ip), vehicle: Klucel (hydroxypropylcellulose) (HPC) 93 % of control | [11] 98 % of control

CC1=CS(=O)(=O)CC(=O)N1
inactive: [1] 101 % of control | [2] 100 % of control | dose: 400.0 mg/kg/injection, schedule: Q01DX009 (ip), vehicle: saline with Tween-80 97 % of control

CC(C)(C)N1CC(C(=O)c2ccccc2)C1c1ccc([N+](=O)[O-])cc1 (configuration not stated)
inactive: [7] 96 % of control | [9] 104 % of control

O=P(O)(c1cccc(Cl)c1)c1cccc(Cl)c1
inactive: dose: 100.0 mg/kg/injection, schedule: Q01DX001 (ip), vehicle: acetone 91 % of control | [13] 97 % of control | dose: 200.0 mg/kg/injection, schedule: Q01DX001 (ip), vehicle: acetone 96 % of control | [14] 107 % of control | dose: 400.0 mg/kg/injection, schedule: Q01DX001 (ip), vehicle: acetone 91 % of control | [15] 97 % of control

O=C1OC(=O)c2ccc(SCC(O)CCl)c3cccc1c23 (configuration not stated)
inactive: dose: 25.0 mg/kg/injection, schedule: Q01DX009 (ip), vehicle: other 98 % of control | dose: 50.0 mg/kg/injection, schedule: Q01DX009 (ip), vehicle: other 93 % of control | [16] 93 % of control and 109 % of control

NC(=Nc1ccc(N)cc1)c1ccc(C(N)=Nc2ccc(N)cc2)cc1
inactive: dose: 2.5 mg/kg/injection, schedule: Q01DX015 (ip), vehicle: water 98 % of control | dose: 5.0 mg/kg/injection, schedule: Q01DX015 (ip), vehicle: water 100 % of control | dose: 10.0 mg/kg/injection, schedule: Q01DX015 (ip), vehicle: water 114 % of control | dose: 20.0 mg/kg/injection, schedule: Q01DX015 (ip), vehicle: water 100 % of control | dose: 36.7 mg/kg/injection, schedule: Q01DX015 (ip), vehicle: water 109 % of control | dose: 73.5 mg/kg/injection, schedule: Q01DX015 (ip), vehicle: water 105 % of control

CC(C)(C)NC(=O)NCc1cccc2ccccc12
inactive: [16] 103 % of control | dose: 200.0 mg/kg/injection, schedule: Q01DX009 (ip), vehicle: other 95 % of control | dose: 400.0 mg/kg/injection, schedule: Q01DX009 (ip), vehicle: other 90 % of control

c1ccc(N2N=NC3C4CC(C5COCC54)C32)cc1 (configuration not stated)
inactive: [6] 97 % of control | [8] 104 % of control | [12] 121 % of control | [10] 109 % of control

COc1ccc([N+](=O)[O-])c2c1CONC2(C)C(=O)O (configuration not stated)
inactive: [13] 98 % of control | [14] 95 % of control | [15] 98 % of control

Cc1ccccc1C(O)(c1ccccc1C)C1(O)CCN(C)CC1
inactive: dose: 9.37 mg/kg/injection, schedule: Q01DX009 (ip), vehicle: saline 94 % of control | dose: 18.75 mg/kg/injection, schedule: Q01DX009 (ip), vehicle: saline 96 % of control | dose: 37.5 mg/kg/injection, schedule: Q01DX009 (ip), vehicle: saline 100 % of control

Cc1cc(NC(=O)Nc2ccc(Cl)c(C(F)(F)F)c2)no1
inactive: dose: 50.0 mg/kg/injection, schedule: Q01DX009 (ip), vehicle: carboxymethylcellulose (CMC) 96 % of control and 97 % of control | dose: 100.0 mg/kg/injection, schedule: Q01DX001 (ip), vehicle: carboxymethylcellulose (CMC) 110 % of control and 112 % of control | dose: 100.0 mg/kg/injection, schedule: Q04DX002 (ip), vehicle: carboxymethylcellulose (CMC) 94 % of control and 100 % of control | dose: 100.0 mg/kg/injection, schedule: Q04DX003 (ip), vehicle: carboxymethylcellulose (CMC) 96 % of control and 103 % of control | dose: 200.0 mg/kg/injection, schedule: Q01DX001 (ip), vehicle: carboxymethylcellulose (CMC) 95 % of control and 108 % of control | dose: 200.0 mg/kg/injection, schedule: Q04DX002 (ip), vehicle: carboxymethylcellulose (CMC) 94 % of control and 97 % of control | dose: 200.0 mg/kg/injection, schedule: Q04DX003 (ip), vehicle: carboxymethylcellulose (CMC) 97 % of control and 101 % of control | dose: 400.0 mg/kg/injection, schedule: Q01DX001 (ip), vehicle: carboxymethylcellulose (CMC) 94 % of control and 91 % of control | dose: 400.0 mg/kg/injection, schedule: Q01DX009 (ip), vehicle: carboxymethylcellulose (CMC) 86 % of control | dose: 400.0 mg/kg/injection, schedule: Q04DX002 (ip), vehicle: carboxymethylcellulose (CMC) 89 % of control and 90 % of control | dose: 400.0 mg/kg/injection, schedule: Q04DX003 (ip), vehicle: carboxymethylcellulose (CMC) 92 % of control and 95 % of control

CCCCCCCCCOC(=O)NC1c2ccccc2Oc2ccccc21
inactive: dose: 100.0 mg/kg/injection, schedule: Q01DX009 (ip), vehicle: acetone 93 % of control | dose: 100.0 mg/kg/injection, schedule: Q04DX003 (ip), vehicle: saline 98 % of control | dose: 200.0 mg/kg/injection, schedule: Q04DX003 (ip), vehicle: saline 98 % of control | dose: 400.0 mg/kg/injection, schedule: Q04DX003 (ip), vehicle: saline 88 % of control

OCC1OC([Se])C(O)C(O)C1O.[CH3][Sb][CH3] (configuration not stated)
inactive: dose: 3.13 mg/kg/injection, schedule: Q01DX009 (ip), vehicle: Klucel (hydroxypropylcellulose) (HPC) 99 % of control | dose: 6.25 mg/kg/injection, schedule: Q01DX009 (ip), vehicle: Klucel (hydroxypropylcellulose) (HPC) 96 % of control and 98 % of control | dose: 12.5 mg/kg/injection, schedule: Q01DX009 (ip), vehicle: Klucel (hydroxypropylcellulose) (HPC) 99 % of control and 104 % of control | dose: 25.0 mg/kg/injection, schedule: Q01DX009 (ip), vehicle: Klucel (hydroxypropylcellulose) (HPC) 91 % of control
